Marks after values point to notes of the source that are not given here.
Experiments:
[1] = test system: patients with mild-to-moderate AD; assay: Example D: safety and tolerability, adjunctive to donepezil 10 mg per day, 4 weeks; assay type: in vivo, human; conditions: for Abdominal pain incidence / Accidental overdose incidence / Decreased lymphocyte count incidence / Decreased white blood cell count incidence / Diarrhoea incidence / Fatigue incidence / Headache incidence / Hyperhidrosis incidence / Lymphopenia incidence / Nausea incidence / Number of TEAEs / SAE incidence / TEAE Severity: Mild / TEAE Severity: Moderate / TEAE Severity: Severe / TEAE incidence / TEAE leading to discontinuation incidence / Treatment-related TEAE incidence / Urinary tract infection incidence / Viral upper respiratory tract infection incidence: randomised dose; for TEAE incidence during maintenance (Days 16-28) / TEAE incidence during titration (Days 1-15): Day 16 dose received
Procedure: The study was an outpatient study conducted across 18 centres in Poland, Czech Republic, Spain, and Slovakia (NCT03456349, registered at clinicaltrials.gov). Patients were assessed for eligibility during a 42-day screening period and randomised equally to either placebo or a HTL0018318 target dose of 5 mg, 15 mg, or 25 mg per day (FIG. 5A). HTL0018318 was titrated to the target dose during a 2-week titration period (FIG. 5B); investigators could maintain or reduce the dose to limit tolerability/safety issues throughout this period. The study was conducted in accordance with the principles of the Declaration of Helsinki, the International Council for Harmonisation good clinical practice guidelines, and according to all appropriate country regulatory requirements. Relevant independent ethics committees provided approval, and all patients (or their caregiver) provided written informed consent.
The primary endpoint of this study was to evaluate the safety and tolerability of HTL0018318. Safety and tolerability were assessed via the incidence and severity of treatment-emergent adverse events (TEAEs), and via evaluation during study visits of vital signs (including blood pressure [BP] and heart rate [HR]), electrocardiogram (ECG) measurements, physical and neurological examinations, laboratory haematology, clinical chemistry and urinalysis.
Safety was the primary endpoint and was assessed at all visits (screening, baseline, Day 1, Day 6±1, Day 11±1, Day 16±1, Day 28±1, and Day 35±2 [follow-up]) based on: spontaneously reported treatment-emergent adverse events (TEAEs); scheduled physical and neurological examinations; vital sign measurements (body temperature, heart rate [HR], systolic and diastolic BP [SBP and DBP]); 12-lead ECG recordings; and clinical laboratory safety panel. The C-SSRS was administered at baseline and on Day 28±1. TEAEs were coded using the Medical Dictionary for Regulatory Activities (MedDRA) Version 20.
All safety analyses used the safety set (SAF; randomised dose). The SAF (randomised dose) included all randomised patients who received at least one dose of the study drug; treatment group assignment was based on the initial randomised dose. All efficacy analyses were considered exploratory and used the full analysis set (FAS). The FAS included all randomised patients with at least one post-baseline efficacy measurement; treatment group assignment was based on the initial randomised dose. All summaries and analyses of PK data used the pharmacokinetic set (PKS). The PKS included all randomised patients with valid PK assessments; treatment group assignment was based on actual dose received.
BP and HR were measured in triplicate, both supine and standing, in the same arm throughout the study. Standing BP and HR were measured after 3 minutes of standing, and supine BP and HR after 5 minutes of lying down. Measurements were repeated if clinically significant or machine/equipment errors occurred. Out-of-range BP or HR measurements were repeated at the investigator's discretion. Any confirmed clinically significant vital sign measurements were recorded as AEs. If the following measurements were obtained, instructions for additional monitoring, or stopping dosing were to be followed: • SBP>170 mmHg; DBP>110 mmHg • SBP or DBP increase >30% from Day 1 pre-dose level.
Statistical evaluation was performed using Statistical analysis software (SAS®, SAS Institute, Cary, NC). Changes from baseline in vital signs were analysed using a mixed model for repeated measures with fixed effects for baseline, treatment, time-point and treatment by time-point interaction. The exploratory PD endpoints were analysed using an analysis of covariance with change from baseline as the dependent variable, and baseline and treatment as covariates. The least square means (LSM) for each dose (and difference from placebo) are presented with the 90% CI, P-value, and ES. […]

[2] = in humans; cited from earlier work
[3] = two highest doses (15 and 25 mg)

## CCOC(=O)N1C2CCC1CC(N1CCC3(CC1)CNC(=O)C3)C2 (stereo not drawn) [HTL0018318, ethyl 3-(3-oxo-2,8-diazaspiro[4.5]dec-8-yl)-8-azabicyclo[3.2.1]octane-8-carboxylate]
[1]; 5 mg (n = 15)
  Abdominal pain incidence: 1 (6.7) n (%)
  Accidental overdose incidence: 1 (6.7) n (%)
  Decreased lymphocyte count incidence: 0 n (%)
  Decreased white blood cell count incidence: 0 n (%)
  Diarrhoea incidence: 1 (6.7) n (%)
  Fatigue incidence: 0 n (%)
  Headache incidence: 1 (6.7) n (%)
  Hyperhidrosis incidence: 0 n (%)
  Lymphopenia incidence: 0 n (%)
  Nausea incidence: 1 (6.7) n (%)
  Number of TEAEs: 18 n
  SAE incidence: 0 n (%)
  TEAE Severity: Mild: 7 (46.7) n (%)
  TEAE Severity: Moderate: 1 (6.7) n (%)
  TEAE Severity: Severe: 1 (6.7) n (%)
  TEAE incidence: 8 (53.3) n (%)
  TEAE leading to discontinuation incidence: 1 (6.7)^d n (%)
  Treatment-related TEAE incidence: 4 (26.7) n (%)
  Urinary tract infection incidence: 1 (6.7) n (%)
  Viral upper respiratory tract infection incidence: 1 (6.7) n (%)
[1]; 5 mg (n = 17)
  TEAE incidence during maintenance (Days 16-28): 4 (23.5) n (%)
  TEAE incidence during titration (Days 1-15): 8 (47.1) n (%)
[1]; 10 mg (n = 1)
  TEAE incidence during maintenance (Days 16-28): 0 n (%)
  TEAE incidence during titration (Days 1-15): 1 (100) n (%)
[1]; 15 mg (n = 14)
  Abdominal pain incidence: 0 n (%)
  Accidental overdose incidence: 1 (7.1) n (%)
  Decreased lymphocyte count incidence: 1 (7.1) n (%)
  Decreased white blood cell count incidence: 1 (7.1) n (%)
  Diarrhoea incidence: 0 n (%)
  Fatigue incidence: 0 n (%)
  Headache incidence: 3 (21.4) n (%)
  Hyperhidrosis incidence: 2 (14.3) n (%)
  Lymphopenia incidence: 1 (7.1) n (%)
  Nausea incidence: 1 (7.1) n (%)
  Number of TEAEs: 16 n
  SAE incidence: 0 n (%)
  TEAE Severity: Mild: 8 (57.1) n (%)
  TEAE Severity: Moderate: 1 (7.1) n (%)
  TEAE Severity: Severe: 0 n (%)
  TEAE incidence: 8 (57.1) n (%)
  TEAE leading to discontinuation incidence: 1 (7.1)^e n (%)
  Treatment-related TEAE incidence: 7 (50.0) n (%)
  Urinary tract infection incidence: 0 n (%)
  Viral upper respiratory tract infection incidence: 0 n (%)
[1]; 15 mg (n = 16)
  TEAE incidence during maintenance (Days 16-28): 2 (12.5) n (%)
  TEAE incidence during titration (Days 1-15): 8 (50.0) n (%)
[1]; 25 mg (n = 11)
  TEAE incidence during maintenance (Days 16-28): 2 (18.2) n (%)
  TEAE incidence during titration (Days 1-15): 6 (54.5) n (%)
[1]; 25 mg (n = 16)
  Abdominal pain incidence: 0 n (%)
  Accidental overdose incidence: 0 n (%)
  Decreased lymphocyte count incidence: 1 (6.3) n (%)
  Decreased white blood cell count incidence: 1 (6.3) n (%)
  Diarrhoea incidence: 1 (6.3) n (%)
  Fatigue incidence: 2 (12.5) n (%)
  Headache incidence: 3 (18.8) n (%)
  Hyperhidrosis incidence: 0 n (%)
  Lymphopenia incidence: 1 (6.3) n (%)
  Nausea incidence: 0 n (%)
  Number of TEAEs: 26 n
  SAE incidence: 0 n (%)
  TEAE Severity: Mild: 9 (56.3) n (%)
  TEAE Severity: Moderate: 4 (25.0) n (%)
  TEAE Severity: Severe: 0 n (%)
  TEAE incidence: 11 (68.8) n (%)
  TEAE leading to discontinuation incidence: 0 n (%)
  Treatment-related TEAE incidence: 5 (31.3) n (%)
  Urinary tract infection incidence: 1 (6.3) n (%)
  Viral upper respiratory tract infection incidence: 1 (6.3) n (%)
[1]; 5, 15, 25 mg
  serious TEAEs or deaths: no serious TEAEs or deaths
[1]; 5-25 mg adjunctive to donepezil
  tolerability: generally well tolerated
[1]; across doses
  orthostatic BP or HR: no significant changes
  physical or neurological examination findings, laboratory abnormalities, risk of suicide: no clinically significant physical or neurological examination findings, or laboratory abnormalities
[1]; all doses, at Tmax, Days 1, 6, 11
  maximum mean elevations in SBP and DBP above placebo: 5-10 mmHg
[1]; one on 5 mg, one on 15 mg
  patients who discontinued treatment due to TEAEs: Two
[1]; [3]
  incidences of cholinergic TEAEs (abdominal pain, diarrhoea, fatigue, nausea): 0-13%
  maximum incidences of cholinergic TEAEs: 7-13%
[2]
  Tmax: 1 to 2 h
  half-life: approximately 16 hours

From US20240165097A1, “PHARMACEUTICAL COMPOSITION FOR THE TREATMENT OF ALZHEIMER'S DISEASE OR DEMENTIA” (Heptares Therapeutics Limited, priority 2021, published 2024)
